Read-outs that look alike come from different tables or passages of the source. Ends that are not written are not given here.
Key:
Format in all cases: cell-based
[1] = tested on: Fusarium oxysporum (KCTC 6076); conditions: KCTC 6076, 3 h
Description: (§1) Rink amide 4-methylbenzhydrylamine resin, fluoren-9-ylmethoxycarbonyl (Fmoc) amino acids, and other reagents for peptide synthesis were purchased from Calibiochem-Novabiochem (La Jolla, CA, USA). For the quantitative antifungal assay and fungicidal activity assay, the following fungal strains were obtained from the Korea Collection for Type Cultures (KCTC): F. solani (KCTC 6326) and F. oxysporum (KCTC 6076). Fungal cells were grown on PDA (potato dextrose agar) plate and subcultured for 2–3 weeks.
(§2) The spore suspension at a concentration of 5 × 10^4 spores/mL (80 μL) was transferred to a 96-well microtiter plate along with 20 μL of (KW)n or (RW)n peptides (n = 3, 4, and 5), melittin, or media to give final peptide concentrations of 4–32 μM. Plates were incubated for 3 h before the addition of 10 μL of 3-(4,5-dimethylthiazol-2-yl)-2,5-diphenyltetrazolium bromide (MTT; 5 mg/mL; Sigma). Plates were then incubated again for 16 h at room temperature, followed by the addition of 100 μL of MTT solvent (0.1 N HCl in anhydrous isopropyl alcohol). Presence of MTT/formazan was monitored spectrophotometrically by measuring the absorbance at 570 nm and then subtracting the background absorbance at 690 nm using a Versa-Max microplate Elisa reader (Molecular Devices, Sunnyvale, CA, USA). Each measurement was conducted in triplicate.

[2] = tested on: Fusarium solani (KCTC 6326); conditions: KCTC 6326, 3 h
Description: as §1, §2

[3] = tested on: Fusarium oxysporum (KCTC 6076); conditions: F. oxysporum, peptide at 64 μM, 24 h, 25 °C
Description: as §1
(§3) Fungal fragments, precultured in mycelial growth medium, were placed in the center of PDA plates, after which the cultures were incubated for 96 h at 25 °C in the dark. After incubation, spores were isolated from cultures growing in half-strength PDA. Spore concentrations were then adjusted to 5 × 10^4 spores/mL in half-strength PDA, after which 80 μL was added to the wells of sterile 96-well flat-bottomed microtiter plates along with 20 μL of peptide or media to give final concentrations of 1–64 μM. Several wells were kept untreated as a control to monitor fungal growth. Plates were incubated in the dark at 25 °C for 24 h before hyphal growth was determined by measuring optical density at 595 nm using a microtiter plate Elisa reader (Molecular Devices, Sunnyvale, CA, USA). Each test was performed in triplicate. Percentages of inhibition were then calculated (Figure 1) (0% inhibition indicates growth equal to control sample (only media)). The lowest concentration of peptide inhibiting fungal growth was monitored microscopically with an inverted light microscope (IX71, Olympus, Tokyo, Japan).

[4] = tested on: Fusarium solani (KCTC 6326); conditions: for growth inhibition (conidial germination and hyphal growth): F. solani, peptide at 64 μM, 24 h, 25 °C; for concentration at which antifungal effects were exhibited (below MIC): KCTC 6326, 24 h
Description: as §1, §3

## N=C(N)NCCC[C@H](NC(=O)[C@H](Cc1c[nH]c2ccccc12)NC(=O)[C@H](CCCNC(=N)N)NC(=O)[C@H](Cc1c[nH]c2ccccc12)NC(=O)[C@H](CCCNC(=N)N)NC(=O)[C@H](Cc1c[nH]c2ccccc12)NC(=O)[C@H](CCCNC(=N)N)NC(=O)[C@H](Cc1c[nH]c2ccccc12)NC(=O)[C@@H](N)CCCNC(=N)N)C(=O)N[C@@H](Cc1c[nH]c2ccccc12)C(N)=O [(RW)5, RWRWRWRWRW-NH2]
[1]
  cells killed: 79%
[2]
  cells killed: 75%

## KWKW-NH2 [(KW)2, tetrameric Lys-Trp repeat peptide amide]
[3]
  growth inhibition (conidial germination and hyphal growth): did not inhibit growth
[3]; listed as (KW)2-NH2
  growth inhibition (conidial germination and hyphal growth): non-inhibition
[4]
  growth inhibition (conidial germination and hyphal growth): did not inhibit growth
[4]; listed as (KW)2-NH2
  growth inhibition (conidial germination and hyphal growth): non-inhibition

## KWKWKWKW-NH2 [(KW)4, KWKWKWKW-NH2]
[4]
  concentration at which antifungal effects were exhibited (below MIC): 4 µM
[1]
  cells killed: 74%
[2]
  cells killed: 68%

## KWKWKWKWKW-NH2 [(KW)5, KWKWKWKWKW-NH2]
[1]
  cells killed: 76%
[2]
  cells killed: 72%

## RWRW-NH2 [(RW)2, tetrameric Arg-Trp repeat peptide amide]
[3]
  growth inhibition (conidial germination and hyphal growth): did not inhibit growth
[3]; listed as (RW)2-NH2
  growth inhibition (conidial germination and hyphal growth): non-inhibition
[4]
  growth inhibition (conidial germination and hyphal growth): did not inhibit growth
[4]; listed as (RW)2-NH2
  growth inhibition (conidial germination and hyphal growth): non-inhibition

## RWRWRWRW-NH2 [(RW)4, RWRWRWRW-NH2]
[4]
  concentration at which antifungal effects were exhibited (below MIC): 4 µM
[1]
  cells killed: 76%
[2]
  cells killed: 69%

Reference: PMC3509626, “Antifungal Activity of (KW)n or (RW)n Peptide against Fusarium solani and Fusarium oxysporum” (International Journal of Molecular Sciences, 2012)
